The target in the assay is Autotaxin (Homo sapiens, UniProt Q13822). The assay is described as follows: Enzyme Inhibition Assay. The protocol:
Then, 15 μL of 41.7 nM ATX solution was added (30 nM final concentration), mixed five times and then incubated for 15 minutes at 30° C. 10 μL of MR121 substrate solution was added (1 μM final concentration), mixed 30 times and then incubated for 15 minutes at 30° C.

Broadly, the IC50 is the point on the concentration scale where inhibition reaches its midpoint. A lower IC50 goes with greater potency.

As to `NS(=O)(=O)c1ccc(C(=O)N2C[C@H]3CN(C(=O)COc4ccc(OC(F)(F)F)cc4)C[C@]3(F)C2)c(F)c1` (relative stereo) [US10738053, Example 3.01], the IC50 was 7 nM.

For the origin of these results see BindingDB's records for patent US10738053 (Hoffmann-La Roche, 2020).
